Measured values published in ChEMBL document CHEMBL5380875, “Discovery of a Potent and Oral Available Complex I OXPHOS Inhibitor That Abrogates Tumor Growth and Circumvents MEKi Resistance” (J Med Chem, 2023).
pIC50: −log10 of the molar value. Active and inactive are the calls of the source. The rule behind the calls is not given here.

Key:
[1] = tested on: NCI-H441; assay: Inhibition of colony formation in human NCI-H441 cells with high-OXPHOS incubated for 7 days by crystal violet staining based analysis; assay type: functional, cell-based; conditions: dose 250-1000 nM, time 7.0 day
[2] = tested on: NCI-H460; assay: Antitumor activity against human NCI-H460 cells with high-OXPHOS xenografted in mouse assessed as tumor growth inhibition at 30 mg/kg, po bid administered for 18 days and measured every 3 days by electronic caliper analysis; assay type: functional, organism-based; conditions: time 18.0 day
[3] = Half life in ICR mouse at 1 mg/kg, iv measured for 24 hrs by LC-MS/MS analysis; assay type: ADME, organism-based; conditions: in vivo
[4] = Tmax in ICR mouse at 10 mg/kg, po measured for 24 hrs by LC-MS/MS analysis; assay type: ADME, organism-based; conditions: in vivo
[5] = tested on: NCI-H460; assay: Antitumor activity against human NCI-H460 cells with high-OXPHOS xenografted in mouse assessed as reduction in trametinib-induced oxidative phosphorylation at 30 mg/kg, po bid administered for 18 days; assay type: functional, organism-based; conditions: time 18.0 day
[6] = tested on: NCI-H460; assay: Potentiation of trametinib-induced antitumor activity against human NCI-H460 cells with high-OXPHOS xenografted in mouse assessed as reduction in tumor weight at 30 mg/kg, po bid administered for 18 days and measured every 3 days by electronic caliper analysis; assay type: functional, organism-based; conditions: time 18.0 day
[7] = target: Cytochrome P450 2C19 (Homo sapiens, UniProt P33261); assay: Inhibition of CYP2C19 in human liver microsomes; assay type: ADME, Microsome
[8] = tested on: NCI-H460; assay: Potentiation of trametinib-induced antitumor activity against human NCI-H460 cells with high-OXPHOS xenografted in mouse assessed as reduction in tumor volume at 30 mg/kg, po bid administered for 18 days and measured every 3 days by electronic caliper analysis; assay type: functional, organism-based; conditions: time 18.0 day
[9] = tested on: NCI-H441; assay: Inhibition of mitochondrial respiration in human NCI-H441 cells with high-OXPHOS assessed as reduction in spare oxygen consumption rate capacity incubated for 12 hrs by seahorse XF96 flux analyzer; assay type: functional, cell-based; conditions: dose 50-200 nM
[10] = Toxicity in mouse xenografted with human NCI-H460 cells with high-OXPHOS assessed as reduction in serum AST level at 30 mg/kg, po bid administered for 18 days; assay type: organism-based; conditions: in vivo, 432 h, time 18 day
[11] = tested on: NCI-H358; assay: Inhibition of mitochondrial respiration in human NCI-H358 cells with low-OXPHOS assessed as reduction in oxygen consumption rate at 50 to 200 nM incubated for 12 hrs by seahorse XF96 flux analyzer; assay type: functional, cell-based; conditions: dose 50-200 nM
[12] = Toxicity in mouse xenografted with human NCI-H460 cells with high-OXPHOS assessed as reduction in body weight at 30 mg/kg, po bid administered for 18 days; assay type: organism-based; conditions: in vivo, 432 h, time 18 day
[13] = tested on: NCI-H460; assay: Inhibition of mitochondrial complex IV in human NCI-H460 cells at 1 uM incubated for 12 hrs by seahorse XF96 metabolic flux analyzer relative to control; assay type: cell-based
[14] = Toxicity in mouse xenografted with human NCI-H460 cells with high-OXPHOS assessed as reduction in body weight at 30 mg/kg, po bid administered for 18 days in presence of trametinib; assay type: organism-based; conditions: in vivo, 432 h, time 18 day
[15] = tested on: NCI-H460; assay: Inhibition of mitochondrial respiration in human NCI-H460 cells with high-OXPHOS assessed as reduction in maximal oxygen consumption rate incubated for 12 hrs by seahorse XF96 flux analyzer; assay type: functional, cell-based; conditions: dose 50-200 nM
[16] = target: Cytochrome P450 3A4 (Homo sapiens, UniProt P08684); assay: Inhibition of CYP3A4 in human liver microsomes using midazolam as substrate; assay type: ADME, Microsome
[17] = tested on: NCI-H460; assay: Inhibition of mitochondrial complex I NADH-ubiquinone oxidoreductase in human NCI-H460 cells at 1 uM incubated for 12 hrs by seahorse XF96 metabolic flux analyzer relative to control; assay type: cell-based
[18] = tested on: NCI-H460; assay: Inhibition of colony formation in human NCI-H460 cells with high-OXPHOS incubated for 7 days by crystal violet staining based analysis; assay type: functional, cell-based; conditions: dose 250-1000 nM, time 7.0 day
[19] = tested on: NCI-H460; assay: Induction of apoptosis in human NCI-H460 cells with high-OXPHOS harboring KRAS Q61H mutant assessed as early apoptotic cells at 20 nM incubated for 72 hrs in presence of trametinib by Annexin V-FITC/propidium iodide staining based flow cytometry analysis (reference value: 1.95%); assay type: functional
[20] = tested on: NCI-H441; assay: Potentiation of trametinib-induced cytotoxicity against human NCI-H441 cells with high-OXPHOS harboring KRAS G12V mutant assessed as reduction in cell viability at 10 to 20 uM incubated for 72 hrs by CellTiter 96 cell proliferation assay; assay type: functional, cell-based; conditions: dose 10-20 µM
[21] = tested on: A549; assay: Induction of apoptosis in human Trametinib-resistant A549 cells with high-OXPHOS harboring KRAS G12S mutant assessed as late apoptotic cells at 20 nM incubated for 72 hrs by Annexin V-FITC/propidium iodide staining based flow cytometry analysis (reference value: 4.27%); assay type: functional
[22] = AUC (0 to infinity) in ICR mouse at 10 mg/kg, po measured for 24 hrs by LC-MS/MS analysis; assay type: ADME, organism-based; set-up: dose 10 mg/kg, time 24 hrs, route po; conditions: in vivo
[23] = Oral bioavailability in ICR mouse at 10 mg/kg measured for 24 hrs by LC-MS/MS analysis; assay type: ADME, organism-based; conditions: in vivo
[24] = tested on: A549; assay: Inhibition of mitochondrial respiration in human Trametinib-resistant A549 cell assessed as reduction in basal oxygen consumption rate at 50 to 200 nM incubated for 12 hrs by seahorse XF96 flux analyzer; assay type: functional, cell-based; conditions: dose 50-200 nM
[25] = Toxicity in mouse xenografted with human NCI-H460 cells with high-OXPHOS assessed as pathological changes in kidney at 30 mg/kg, po bid administered for 18 days by H and E staining based analysis; assay type: organism-based; conditions: in vivo, 432 h, time 18 day
[26] = target: Cytochrome P450 2C9 (Homo sapiens, UniProt P11712); assay: Inhibition of CYP2C9 in human liver microsomes; assay type: ADME, Microsome
[27] = tested on: NCI-H358; assay: Antiproliferative activity against human NCI-H358 cells with low-OXPHOS assessed as reduction in cell viability incubated for 5 days by CellTiter 96 cell proliferation assay; assay type: functional, cell-based; conditions: NCI-H358, 120 h
[28] = AUC (0 to infinity) in ICR mouse at 1 mg/kg, iv measured for 24 hrs by LC-MS/MS analysis; assay type: ADME, organism-based; set-up: dose 1 mg/kg, time 24 hrs, route iv; conditions: in vivo
[29] = tested on: NCI-H460; assay: Inhibition of mitochondrial complex I NADH-ubiquinone oxidoreductase in human NCI-H460 cells assessed as reduction in NAD+/NADH ratio at 1 uM incubated for 12 hrs by WST-8 method relative to control; assay type: cell-based
[30] = tested on: A549; assay: Induction of apoptosis in human Trametinib-resistant A549 cells with high-OXPHOS harboring KRAS G12S mutant assessed as early apoptotic cells at 20 nM incubated for 72 hrs in presence of trametinib by Annexin V-FITC/propidium iodide staining based flow cytometry analysis (reference value: 4.31%); assay type: functional
[31] = tested on: NCI-H441; assay: Inhibition of colony formation in human NCI-H441 cells with high-OXPHOS harboring KRAS G12V mutant incubated for 10 to 14 days in presence of trametinib by crystal violet staining based analysis; assay type: functional, cell-based; conditions: time 10-14 day
[32] = Toxicity in mouse xenografted with human NCI-H460 cells with high-OXPHOS assessed as pathological changes in spleen at 30 mg/kg, po bid administered for 18 days by H and E staining based analysis; assay type: organism-based; conditions: in vivo, 432 h, time 18 day
[33] = Tmax in ICR mouse at 1 mg/kg, iv measured for 24 hrs by LC-MS/MS analysis; assay type: ADME, organism-based; conditions: in vivo

Cytochrome P450 2C9, sequence (P11712 whole entry): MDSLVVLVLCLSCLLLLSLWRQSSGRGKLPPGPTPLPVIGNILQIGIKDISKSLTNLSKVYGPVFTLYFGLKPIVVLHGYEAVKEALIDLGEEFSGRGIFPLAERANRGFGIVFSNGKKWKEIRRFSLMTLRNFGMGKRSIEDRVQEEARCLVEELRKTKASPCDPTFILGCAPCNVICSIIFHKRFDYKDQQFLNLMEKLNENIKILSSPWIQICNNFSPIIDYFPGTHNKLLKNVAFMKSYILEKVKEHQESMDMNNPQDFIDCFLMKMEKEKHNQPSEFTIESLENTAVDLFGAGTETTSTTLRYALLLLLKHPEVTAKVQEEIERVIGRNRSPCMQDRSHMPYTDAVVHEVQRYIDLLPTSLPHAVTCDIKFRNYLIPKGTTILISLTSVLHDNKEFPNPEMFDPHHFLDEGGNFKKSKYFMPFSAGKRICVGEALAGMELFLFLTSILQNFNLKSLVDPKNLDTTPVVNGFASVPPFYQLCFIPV
Cytochrome P450 2C19, sequence (P33261 whole entry): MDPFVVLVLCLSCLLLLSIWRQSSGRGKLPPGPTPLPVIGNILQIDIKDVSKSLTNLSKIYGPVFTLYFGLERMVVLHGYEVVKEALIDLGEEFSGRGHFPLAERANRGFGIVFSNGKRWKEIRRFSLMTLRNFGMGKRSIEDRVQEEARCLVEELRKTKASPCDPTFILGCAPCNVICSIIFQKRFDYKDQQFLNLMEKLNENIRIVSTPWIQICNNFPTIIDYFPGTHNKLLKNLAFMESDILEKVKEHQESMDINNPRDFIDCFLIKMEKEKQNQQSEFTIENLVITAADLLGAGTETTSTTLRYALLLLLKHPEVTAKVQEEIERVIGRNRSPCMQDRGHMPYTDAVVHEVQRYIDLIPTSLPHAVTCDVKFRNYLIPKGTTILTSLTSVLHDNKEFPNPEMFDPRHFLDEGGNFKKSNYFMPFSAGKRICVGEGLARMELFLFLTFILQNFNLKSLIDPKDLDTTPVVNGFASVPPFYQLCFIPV
Cytochrome P450 3A4, sequence (P08684 whole entry): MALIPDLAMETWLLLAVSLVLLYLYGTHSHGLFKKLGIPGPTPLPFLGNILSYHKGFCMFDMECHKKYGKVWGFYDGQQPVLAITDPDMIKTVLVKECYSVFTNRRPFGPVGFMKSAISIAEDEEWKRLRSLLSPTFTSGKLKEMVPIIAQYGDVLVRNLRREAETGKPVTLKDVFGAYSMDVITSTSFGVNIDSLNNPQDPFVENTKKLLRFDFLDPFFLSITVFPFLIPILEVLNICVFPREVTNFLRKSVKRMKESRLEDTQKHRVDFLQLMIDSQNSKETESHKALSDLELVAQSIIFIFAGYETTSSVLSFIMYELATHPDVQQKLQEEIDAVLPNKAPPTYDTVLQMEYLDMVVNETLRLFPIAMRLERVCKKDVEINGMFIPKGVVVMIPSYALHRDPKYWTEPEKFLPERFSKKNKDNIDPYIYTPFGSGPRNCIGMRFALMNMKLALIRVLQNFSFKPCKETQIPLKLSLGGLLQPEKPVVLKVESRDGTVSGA

half-life [3]: 2.3 h
Tmax [4]: 1 h
pIC50 [7]: < 4.30
pIC50 [16]: < 4.30
AUC(0-inf) [22]: 2300 ng·h/mL
bioavailability [23]: 64.3%
pIC50 [26]: 4.84
pIC50 [27]: < 6.00
AUC(0-inf) [28]: 359 ng·h/mL
Tmax [33]: 4.8 min
SMILES: Cc1c(C(=O)N2CCN(Cc3ccc(OCC(F)(F)F)cc3)CC2)nnn1Cc1ccc(C(=O)Nc2ccc(C(F)(F)F)cc2)nc1
inhibition [1]: Dose-Dependent Effect
inhibition [2]: Active
Activity [5]: Active
Activity [6]: Active
Activity [8]: Active
inhibition [9]: Dose-Dependent Effect
Activity [10]: Non-Toxic
inhibition [11]: inactive
Activity [12]: Non-Toxic
inhibition [13]: 10.4%
Activity [14]: Non-Toxic
inhibition [15]: Dose-Dependent Effect
inhibition [17]: 77.6%
inhibition [18]: Dose-Dependent Effect
Activity [19]: 26.2%
Activity [20]: Active
Activity [21]: 7.45%
inhibition [24]: Active
Activity [25]: Non-Toxic
inhibition [29]: 87.5%
Activity [30]: 31%
inhibition [31]: Active
Activity [32]: Non-Toxic
